Values quoted from earlier work as cited in patent US6770295B1 (Pharmacia AB, priority 1998, dated 2004).

Conditions: following oral administration

- duration: three to six
Compound: CCN(CC)CC#CCOC(=O)C(O)(c1ccccc1)C1CCCCC1 (racemic) [Oxybutynin, 4-diethylamino-2-butynyl-phenylcyclohexylglycolate]
